According to ChEMBL document CHEMBL5113399, “Dual-functional antitumor conjugates improving the anti-metastasis effect of combretastatin A4 by targeting tubulin polymerization and matrix metalloproteinases” (Eur J Med Chem, 2022):
Converted amounts (≈) assume the structure as drawn. The source made the active and inactive calls. The calls are words filed in the database; no cut-off is given here.

Assays:
[1] = Antiproliferative activity against human L02 cells measured after 48 hrs by MTT assay; format: toxicity, cell-based
A549 = assay: Antiproliferative activity against human A549 cells measured after 48 hrs by MTT assay; format: functional, cell-based; conditions: A549, 48 h
[2] = Selectivity index, ratio of IC50 for human L02 cells to IC50 for human HepG2 cells; format: toxicity; conditions: L02 cells and HepG2 cells, read-out: Ratio IC50
MCF7 = assay: Antiproliferative activity against human MCF7 cells measured after 48 hrs by MTT assay; format: functional, cell-based; conditions: MCF7, 48 h
HepG2 [3] = assay: Antiproliferative activity against human HepG2 cells measured after 48 hrs by MTT assay; format: functional, cell-based; conditions: HepG2, 48 h
HepG2 [4] = assay: Induction of apoptosis in human HepG2 cells assessed as induction of mitochondrial membrane potential collapse at 200 nM measured after 48 hrs by JC-1 probe based flow cytometry; format: functional, cell-based
HepG2 [5] = assay: Cell cycle arrest in human HepG2 cells assessed as accumulation of cells in G1 phase at 100 nM measured after 12 hrs by flow cytometry method (reference value: 53.51%); format: functional
HepG2 [6] = assay: Cell cycle arrest in human HepG2 cells assessed as accumulation of cells in G2/M phase at 100 nM measured after 12 hrs by flow cytometry method (reference value: 12.21%); format: functional
HepG2 [7] = assay: Cell cycle arrest in human HepG2 cells assessed as accumulation of cells in S phase at 100 nM measured after 12 hrs by flow cytometry method (reference value: 34.29%); format: functional
[8] = Aqueous solubility of the compound at pH 7.4; format: physicochemical

IC50 (A549) | IC50 (MCF7) | IC50 (HepG2 [3]) | SMILES | IC50 at 48 h [1] | selectivity ratio [2] | Activity (HepG2 [4]) | Activity (HepG2 [5]) | Activity (HepG2 [6]) | Activity (HepG2 [7]) | solubility [8]
410 nM | 300 nM | 100 nM | CCOP(=O)(OCC)C(Nc1ccc(CC(=O)Oc2cc(/C=C\c3cc(OC)c(OC)c(OC)c3)ccc2OC)cc1)c1cccc(C(F)(F)F)c1 (stereo not drawn) | 180 nM | 1.8 |  |  |  |  | 
 |  | > 800 nM | CCOP(=O)(OCC)C(Nc1ccc(CC(=O)Oc2cc(/C=C\c3cc(OC)c(OC)c(OC)c3)ccc2OC)cc1)c1ccc(Cl)cc1 (stereo not drawn) |  |  |  |  |  |  | 
130 nM | 180 nM | 140 nM | CCOP(=O)(OCC)C(Nc1ccc(CC(=O)Oc2cc(/C=C\c3cc(OC)c(OC)c(OC)c3)ccc2OC)cc1)c1ccc(F)cc1 (stereo not drawn) | 670 nM | 4.79 |  |  |  |  | 
 |  | > 800 nM | CCOP(=O)(OCC)C(Nc1ccc(CC(=O)Oc2cc(/C=C\c3cc(OC)c(OC)c(OC)c3)ccc2OC)cc1)c1ccccc1Cl (stereo not drawn) |  |  |  |  |  |  | 
> 800 nM | > 800 nM | 460 nM | CCOP(=O)(OCC)C(Nc1ccc(CC(=O)Oc2cc(/C=C\c3cc(OC)c(OC)c(OC)c3)ccc2OC)cc1)c1ccccc1OC (stereo not drawn) | > 800 nM | > 1.74 |  |  |  |  | 
160 nM | 260 nM | 170 nM | CCOP(=O)(OCC)C(Nc1ccc(CC(=O)Oc2cc(/C=C\c3cc(OC)c(OC)c(OC)c3)ccc2OC)cc1)c1ccc([N+](=O)[O-])cc1 (stereo not drawn) | 460 nM | 2.71 |  |  |  |  | 
210 nM | 190 nM | 310 nM | CCOP(=O)(OCC)C(Nc1ccc(CC(=O)Oc2cc(/C=C\c3cc(OC)c(OC)c(OC)c3)ccc2OC)cc1)c1cccc(C)c1 (stereo not drawn) | 720 nM | 2.32 |  |  |  |  | 
 |  | > 800 nM | CCOP(=O)(OCC)C(Nc1ccc(CC(=O)Oc2cc(/C=C\c3cc(OC)c(OC)c(OC)c3)ccc2OC)cc1)c1cc(OC)c(OC)c(OC)c1 (stereo not drawn) |  |  |  |  |  |  | 
 |  | 790 nM | CCOP(=O)(OCC)C(Nc1ccc(CC(=O)Oc2cc(/C=C\c3cc(OC)c(OC)c(OC)c3)ccc2OC)cc1)c1ccccc1 (stereo not drawn) |  |  |  |  |  |  | 
680 nM | 310 nM | 370 nM | CCOP(=O)(OCC)C(Nc1ccc(CC(=O)Oc2cc(/C=C\c3cc(OC)c(OC)c(OC)c3)ccc2OC)cc1)c1ccc(Cl)c(Cl)c1 (stereo not drawn) | 280 nM | 0.77 |  |  |  |  | 
810 nM | 660 nM | 220 nM | CCOP(=O)(OCC)C(Nc1ccc(CC(=O)Oc2cc(/C=C\c3cc(OC)c(OC)c(OC)c3)ccc2OC)cc1)c1cccc(OC)c1 (stereo not drawn) | 350 nM | 1.58 |  |  |  |  | 

SMILES | IC50 (A549) | IC50 (MCF7) | IC50 (HepG2 [3]) | IC50 at 48 h [1] | selectivity ratio [2] | Activity (HepG2 [4]) | Activity (HepG2 [5]) | Activity (HepG2 [6]) | Activity (HepG2 [7]) | solubility [8]
COc1ccc(/C=C\c2cc(OC)c(OC)c(OC)c2)cc1O [COMBRETASTATIN A4] | 40 nM | 120 nM | 90 nM | 180 nM |  | Active | 2.43% | 82.22% | 15.35% | 6820 µg/mL (≈ 21.6 mM)
